According to patent EP2826473A1, “NOVEL USE OF PATCHOULOL” (Chengdu Huasun Group Inc., Ltd., priority 2012, dated 2013):
In brackets after ≈: the same amount, converted by molar mass. Counter-ions that a name gives are not always drawn. Like-named read-outs stand apart in the source and are kept apart here.

Key:
Format in all cases: cell-based
[1] = test system: Staphylococcus aureus MSSA; test: in vitro bacteriostatic activity, agar dilution MIC; settings: Staphylococcus aureus, MSSA
[2] = test system: Staphylococcus epidermidis MSSE; test: as above
Enterococcus faecalis = test: as above
Enterococcus faecium = test: as above
[3] = test system: Staphylococcus epidermidis ATCC 12228; test: in vitro bacteriostatic activity, agar dilution MIC, quality control strain; settings: ATCC12228
Streptococcus pneumoniae = test: in vitro bacteriostatic activity, agar dilution MIC
[4] = Staphylococcus aureus MSSA 12-11, read-out: MIC
[5] = Staphylococcus aureus MSSA 12-13, read-out: MIC
[6] = Staphylococcus aureus MSSA 12-14, read-out: MIC
[7] = Staphylococcus aureus MSSA 12-15
[8] = Staphylococcus aureus MSSA 12-16, read-out: MIC
[9] = Staphylococcus aureus MSSA 12-17, read-out: MIC
[10] = Staphylococcus aureus MSSA 12-18
[11] = Staphylococcus aureus MSSA 12-19, read-out: MIC
[12] = Staphylococcus aureus MSSA 12-20, read-out: MIC
[13] = Staphylococcus aureus MSSA 12-21
[14] = Staphylococcus epidermidis, Staphylococcus epidermidis MSSE 12-12, read-out: MIC
[15] = Staphylococcus epidermidis, Staphylococcus epidermidis MSSE 12-13, read-out: MIC
[16] = Staphylococcus epidermidis, Staphylococcus epidermidis MSSE 12-14, read-out: MIC
[17] = Staphylococcus epidermidis, Staphylococcus epidermidis MSSE 12-15, read-out: MIC
[18] = Staphylococcus epidermidis, Staphylococcus epidermidis MSSE 12-16, read-out: MIC
[19] = Staphylococcus epidermidis, Staphylococcus epidermidis MSSE 12-17, read-out: MIC
[20] = Staphylococcus epidermidis, Staphylococcus epidermidis MSSE 12-18, read-out: MIC
[21] = Staphylococcus epidermidis, Staphylococcus epidermidis MSSE 12-19, read-out: MIC
[22] = Enterococcus faecalis, ATCC29212, Enterococcus faecalis ATCC 29212, read-out: MIC
[23] = Enterococcus faecalis, ATCC51299, Enterococcus faecalis (high endurance) ATCC 51299, read-out: MIC
[24] = Enterococcus faecalis, Enterococcus faecalis 12-11, read-out: MIC
[25] = Enterococcus faecalis, Enterococcus faecalis 12-12, read-out: MIC
[26] = Enterococcus faecalis, Enterococcus faecalis 12-13, read-out: MIC
[27] = Enterococcus faecalis, Enterococcus faecalis 12-14, read-out: MIC
[28] = Enterococcus faecalis, Enterococcus faecalis 12-17, read-out: MIC
[29] = Enterococcus faecalis, Enterococcus faecalis 12-18, read-out: MIC
[30] = Enterococcus faecalis, Enterococcus faecalis 12-19, read-out: MIC
[31] = Enterococcus faecalis, Enterococcus faecalis 12-20, read-out: MIC
[32] = Enterococcus faecalis, Enterococcus faecalis 12-21, read-out: MIC
[33] = Enterococcus faecalis, Enterococcus faecalis 12-22, read-out: MIC
[34] = Enterococcus faecium, ATCC33186, Enterococcus faecium ATCC 33186, read-out: MIC
[35] = Enterococcus faecium, Enterococcus faecium 12-7, read-out: MIC
[36] = Enterococcus faecium, Enterococcus faecium 12-8, read-out: MIC
[37] = Enterococcus faecium, Enterococcus faecium 12-9, read-out: MIC
[38] = Enterococcus faecium, Enterococcus faecium 12-10, read-out: MIC
[39] = Enterococcus faecium, Enterococcus faecium 12-11, read-out: MIC
[40] = Enterococcus faecium, Enterococcus faecium 12-12, read-out: MIC
[41] = Enterococcus faecium, Enterococcus faecium 12-13, read-out: MIC
[42] = Enterococcus faecium, Enterococcus faecium 12-14, read-out: MIC
[43] = Enterococcus faecium, Enterococcus faecium 12-15, read-out: MIC
[44] = Enterococcus faecium, Enterococcus faecium 12-16, read-out: MIC

CC[C@H]1OC(=O)[C@H](C)[C@@H](O[C@H]2C[C@@](C)(OC)[C@@H](O)[C@H](C)O2)[C@H](C)[C@@H](O[C@@H]2O[C@H](C)C[C@H](N(C)C)[C@H]2O)[C@](C)(O)C[C@@H](C)CN(C)[C@H](C)[C@@H](O)[C@]1(C)O [azithromycin, Azithromycin]
MIC [1, 4]: > 128 µg/mL
MIC [1, 5]: 0.25 µg/mL (≈ 0.334 µM)
MIC [1, 6]: > 128 µg/mL
MIC [1, 7]: 0.125 µg/mL (≈ 0.167 µM)
MIC [1, 8]: > 128 µg/mL
MIC [1, 9]: > 128 µg/mL
MIC [1, 10]: 128 µg/mL (≈ 171 µM)
MIC [1, 11]: > 128 µg/mL
MIC [1, 12]: > 128 µg/mL
MIC [1, 13]: 128 µg/mL (≈ 171 µM)
MIC ([2]; Staphylococcus epidermidis): 128 µg/mL (≈ 171 µM)
MIC ([2]; Staphylococcus epidermidis MSSE 12-20): 128 µg/mL (≈ 171 µM)
MIC [2, 14]: 4 µg/mL (≈ 5.34 µM)
MIC [2, 15]: > 128 µg/mL
MIC [2, 16]: 8 µg/mL (≈ 10.7 µM)
MIC [2, 17]: 8 µg/mL (≈ 10.7 µM)
MIC [2, 18]: 64 µg/mL (≈ 85.4 µM)
MIC [2, 19]: 8 µg/mL (≈ 10.7 µM)
MIC [2, 20]: 16 µg/mL (≈ 21.4 µM)
MIC [2, 21]: 16 µg/mL (≈ 21.4 µM)
MIC (Enterococcus faecalis; [22]): 4 µg/mL (≈ 5.34 µM)
MIC (Enterococcus faecalis; [23]): > 128 µg/mL
MIC (Enterococcus faecalis; [24]): > 128 µg/mL
MIC (Enterococcus faecalis; [25]): 4 µg/mL (≈ 5.34 µM)
MIC (Enterococcus faecalis; [26]): > 128 µg/mL
MIC (Enterococcus faecalis; [27]): 1 µg/mL (≈ 1.34 µM)
MIC (Enterococcus faecalis; [28]): > 128 µg/mL
MIC (Enterococcus faecalis; [29]): > 128 µg/mL
MIC (Enterococcus faecalis; [30]): > 128 µg/mL
MIC (Enterococcus faecalis; [31]): > 128 µg/mL
MIC (Enterococcus faecalis; [32]): > 128 µg/mL
MIC (Enterococcus faecalis; [33]): > 128 µg/mL
MIC (Enterococcus faecium; [34]): 2 µg/mL (≈ 2.67 µM)
MIC (Enterococcus faecium; [35]): > 128 µg/mL
MIC (Enterococcus faecium; [36]): 1 µg/mL (≈ 1.34 µM)
MIC (Enterococcus faecium; [37]): > 128 µg/mL
MIC (Enterococcus faecium; [38]): > 128 µg/mL
MIC (Enterococcus faecium; [39]): > 128 µg/mL
MIC (Enterococcus faecium; [40]): > 128 µg/mL
MIC (Enterococcus faecium; [41]): > 128 µg/mL
MIC (Enterococcus faecium; [42]): > 128 µg/mL
MIC (Enterococcus faecium; [43]): > 128 µg/mL
MIC (Enterococcus faecium; [44]): > 128 µg/mL
MIC ([3]; Staphylococcus epidermidis): 0.125 µg/mL (≈ 0.167 µM)

CO/N=C(\C(=O)N[C@@H]1C(=O)N2C(C(=O)[O-])=C(C[N+]3(C)CCCC3)CS[C@H]12)c1csc(N)n1 [cefepime, Cefepime hydrochloride]
MIC ([1]; Staphylococcus aureus MSSA 12-11): 4 µg/mL
MIC ([1]; Staphylococcus aureus MSSA 12-13): 4 µg/mL
MIC ([1]; Staphylococcus aureus MSSA 12-14): 2 µg/mL
MIC [1, 7]: 2 µg/mL
MIC ([1]; Staphylococcus aureus MSSA 12-16): 4 µg/mL
MIC ([1]; Staphylococcus aureus MSSA 12-17): 4 µg/mL
MIC [1, 10]: 2 µg/mL
MIC ([1]; Staphylococcus aureus MSSA 12-19): 2 µg/mL
MIC ([1]; Staphylococcus aureus MSSA 12-20): 2 µg/mL
MIC [1, 13]: 4 µg/mL
MIC ([2]; Staphylococcus epidermidis, Staphylococcus epidermidis MSSE 12-11): 1 µg/mL
MIC ([2]; Staphylococcus epidermidis, Staphylococcus epidermidis MSSE 12-12): 1 µg/mL
MIC ([2]; Staphylococcus epidermidis, Staphylococcus epidermidis MSSE 12-13): 1 µg/mL
MIC ([2]; Staphylococcus epidermidis, Staphylococcus epidermidis MSSE 12-14): 16 µg/mL
MIC ([2]; Staphylococcus epidermidis, Staphylococcus epidermidis MSSE 12-15): 16 µg/mL
MIC ([2]; Staphylococcus epidermidis, Staphylococcus epidermidis MSSE 12-16): 0.25 µg/mL
MIC ([2]; Staphylococcus epidermidis, Staphylococcus epidermidis MSSE 12-17): 2 µg/mL
MIC ([2]; Staphylococcus epidermidis, Staphylococcus epidermidis MSSE 12-18): 1 µg/mL
MIC ([2]; Staphylococcus epidermidis, Staphylococcus epidermidis MSSE 12-19): 1 µg/mL
MIC ([2]; Staphylococcus epidermidis, Staphylococcus epidermidis MSSE 12-20): 2 µg/mL
MIC (Enterococcus faecalis; Enterococcus faecalis 12-11): >128 µg/mL
MIC (Enterococcus faecalis; Enterococcus faecalis 12-13): >128 µg/mL
MIC (Enterococcus faecalis; Enterococcus faecalis, ATCC29212, Enterococcus faecalis ATCC 29212): 16 µg/mL
MIC (Enterococcus faecalis; Enterococcus faecalis, ATCC51299, Enterococcus faecalis (high endurance) ATCC 51299): 32 µg/mL
MIC (Enterococcus faecalis; Enterococcus faecalis, Enterococcus faecalis 12-12): 4 µg/mL
MIC (Enterococcus faecalis; Enterococcus faecalis, Enterococcus faecalis 12-14): 8 µg/mL
MIC (Enterococcus faecalis; Enterococcus faecalis, Enterococcus faecalis 12-17): 32 µg/mL
MIC (Enterococcus faecalis; Enterococcus faecalis, Enterococcus faecalis 12-18): 16 µg/mL
MIC (Enterococcus faecalis; Enterococcus faecalis, Enterococcus faecalis 12-19): 16 µg/mL
MIC (Enterococcus faecalis; Enterococcus faecalis, Enterococcus faecalis 12-20): 16 µg/mL
MIC (Enterococcus faecalis; Enterococcus faecalis, Enterococcus faecalis 12-21): 16 µg/mL
MIC (Enterococcus faecalis; Enterococcus faecalis, Enterococcus faecalis 12-22): 32 µg/mL
MIC (Enterococcus faecium; Enterococcus faecium 12-7): >128 µg/mL
MIC (Enterococcus faecium; Enterococcus faecium 12-8): >128 µg/mL
MIC (Enterococcus faecium; Enterococcus faecium 12-9): >128 µg/mL
MIC (Enterococcus faecium; Enterococcus faecium 12-10): >128 µg/mL
MIC (Enterococcus faecium; Enterococcus faecium 12-11): >128 µg/mL
MIC (Enterococcus faecium; Enterococcus faecium 12-12): >128 µg/mL
MIC (Enterococcus faecium; Enterococcus faecium 12-13): >128 µg/mL
MIC (Enterococcus faecium; Enterococcus faecium 12-14): >128 µg/mL
MIC (Enterococcus faecium; Enterococcus faecium 12-15): >128 µg/mL
MIC (Enterococcus faecium; Enterococcus faecium 12-16): >128 µg/mL
MIC (Enterococcus faecium; Enterococcus faecium, ATCC33186, Enterococcus faecium ATCC 33186): 16 µg/mL
MIC ([3]; Staphylococcus epidermidis): 1 µg/mL

CC1(C)S[C@@H]2[C@H](NC(=O)Cc3ccccc3)C(=O)N2[C@H]1C(=O)O [penicillin, Benzylpenicillin sodium]
MIC [1, 4]: 0.5 µg/mL
MIC [1, 5]: 0.5 µg/mL
MIC [1, 6]: 0.5 µg/mL
MIC ([1]; Staphylococcus aureus MSSA 12-15, read-out: MIC): 0.25 µg/mL
MIC [1, 8]: 0.5 µg/mL
MIC [1, 9]: 0.125 µg/mL
MIC ([1]; Staphylococcus aureus MSSA 12-18, read-out: MIC): 0.25 µg/mL
MIC [1, 11]: 0.25 µg/mL
MIC [1, 12]: 0.5 µg/mL
MIC ([1]; Staphylococcus aureus MSSA 12-21, read-out: MIC): 0.25 µg/mL
MIC ([2]; Staphylococcus epidermidis, Staphylococcus epidermidis MSSE 12-11, read-out: MIC): 0.03 µg/mL
MIC [2, 14]: 0.06 µg/mL
MIC [2, 15]: 0.5 µg/mL
MIC [2, 16]: 8 µg/mL
MIC [2, 17]: 8 µg/mL
MIC [2, 18]: 0.06 µg/mL
MIC [2, 19]: 0.03 µg/mL
MIC [2, 20]: 0.06 µg/mL
MIC [2, 21]: 0.06 µg/mL
MIC ([2]; Staphylococcus epidermidis, Staphylococcus epidermidis MSSE 12-20, read-out: MIC): 0.03 µg/mL
MIC (Enterococcus faecalis; [22]): 1 µg/mL
MIC (Enterococcus faecalis; [23]): 1 µg/mL
MIC (Enterococcus faecalis; [24]): > 128 µg/mL
MIC (Enterococcus faecalis; [25]): 1 µg/mL
MIC (Enterococcus faecalis; [26]): 32 µg/mL
MIC (Enterococcus faecalis; [27]): 1 µg/mL
MIC (Enterococcus faecalis; [28]): 2 µg/mL
MIC (Enterococcus faecalis; [29]): 2 µg/mL
MIC (Enterococcus faecalis; [30]): 2 µg/mL
MIC (Enterococcus faecalis; [31]): 2 µg/mL
MIC (Enterococcus faecalis; [32]): 2 µg/mL
MIC (Enterococcus faecalis; [33]): 1 µg/mL
MIC (Enterococcus faecium; [34]): 2 µg/mL
MIC (Enterococcus faecium; [35]): 128 µg/mL
MIC (Enterococcus faecium; [36]): > 128 µg/mL
MIC (Enterococcus faecium; [37]): 128 µg/mL
MIC (Enterococcus faecium; [38]): > 128 µg/mL
MIC (Enterococcus faecium; [39]): 128 µg/mL
MIC (Enterococcus faecium; [40]): > 128 µg/mL
MIC (Enterococcus faecium; [41]): > 128 µg/mL
MIC (Enterococcus faecium; [42]): > 128 µg/mL
MIC (Enterococcus faecium; [43]): 128 µg/mL
MIC (Enterococcus faecium; [44]): 128 µg/mL
MIC (Streptococcus pneumoniae; ATCC49619, Streptococcus pneumonia ATCC 49619): 0.2 µg/mL
MIC (Streptococcus pneumoniae; Streptococcus pneumonia 12-6): 0.05 µg/mL
MIC (Streptococcus pneumoniae; Streptococcus pneumonia 12-7): 0.1 µg/mL
MIC (Streptococcus pneumoniae; Streptococcus pneumonia 12-8): 0.1 µg/mL
MIC (Streptococcus pneumoniae; Streptococcus pneumonia 12-9): 0.1 µg/mL
MIC (Streptococcus pneumoniae; Streptococcus pneumonia 12-10): 0.2 µg/mL
MIC (Streptococcus pneumoniae; Streptococcus pneumoniae 12-1): 0.1 µg/mL
MIC (Streptococcus pneumoniae; Streptococcus pneumoniae 12-2): 0.2 µg/mL
MIC (Streptococcus pneumoniae; Streptococcus pneumoniae 12-3): 0.1 µg/mL
MIC (Streptococcus pneumoniae; Streptococcus pneumoniae 12-4): 0.4 µg/mL
MIC (Streptococcus pneumoniae; Streptococcus pneumoniae 12-5): 0.05 µg/mL
MIC ([3]; Staphylococcus epidermidis ATCC 12228, read-out: MIC): 0.5 µg/mL
